Source: patent US20080176936A1, “Classes of Compounds that Interact with Integrins” (priority 2005, published 2008)

Legend:
[1] = molecular target: T1, αVβ3 integrin (Homo sapiens, UniProt P05106+P06756); test: ELISA: inhibition of binding of αVβ3 integrin (source WM-115 cell line) to coated extracellular matrix protein; conditions: WM-115 cell line as integrin source
T1 construct: the cell line WM-115 was used as a source of αVβ3 integrin; endogenous in cells; host or cells: WM-115 cell line
Outline: (§1)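 Wells were coated with fibrinogen or vitronectin (10 µg/well), and integrin binding was measured by ELISA. αIIbβ3 came from human platelet membranes and αVβ3 from WM-115 cells, each preincubated with compound. Bound integrin was detected with a rabbit anti-β3 antibody, an HRP secondary and a colorimetric readout.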

[2] = molecular target: T2, αllbβ3 integrin (Homo sapiens, UniProt P05106+P08514); test: ELISA: inhibition of binding of αllbβ3 integrin membrane preparation to coated extracellular matrix protein; conditions: human platelet membrane preparation
T2 construct: Human platelet membrane preparations were used as a source of αllbβ3 integrin; from tissue; host or cells: human platelets (membrane preparation)
T2 sequence (P08514 32-887 limits assumed): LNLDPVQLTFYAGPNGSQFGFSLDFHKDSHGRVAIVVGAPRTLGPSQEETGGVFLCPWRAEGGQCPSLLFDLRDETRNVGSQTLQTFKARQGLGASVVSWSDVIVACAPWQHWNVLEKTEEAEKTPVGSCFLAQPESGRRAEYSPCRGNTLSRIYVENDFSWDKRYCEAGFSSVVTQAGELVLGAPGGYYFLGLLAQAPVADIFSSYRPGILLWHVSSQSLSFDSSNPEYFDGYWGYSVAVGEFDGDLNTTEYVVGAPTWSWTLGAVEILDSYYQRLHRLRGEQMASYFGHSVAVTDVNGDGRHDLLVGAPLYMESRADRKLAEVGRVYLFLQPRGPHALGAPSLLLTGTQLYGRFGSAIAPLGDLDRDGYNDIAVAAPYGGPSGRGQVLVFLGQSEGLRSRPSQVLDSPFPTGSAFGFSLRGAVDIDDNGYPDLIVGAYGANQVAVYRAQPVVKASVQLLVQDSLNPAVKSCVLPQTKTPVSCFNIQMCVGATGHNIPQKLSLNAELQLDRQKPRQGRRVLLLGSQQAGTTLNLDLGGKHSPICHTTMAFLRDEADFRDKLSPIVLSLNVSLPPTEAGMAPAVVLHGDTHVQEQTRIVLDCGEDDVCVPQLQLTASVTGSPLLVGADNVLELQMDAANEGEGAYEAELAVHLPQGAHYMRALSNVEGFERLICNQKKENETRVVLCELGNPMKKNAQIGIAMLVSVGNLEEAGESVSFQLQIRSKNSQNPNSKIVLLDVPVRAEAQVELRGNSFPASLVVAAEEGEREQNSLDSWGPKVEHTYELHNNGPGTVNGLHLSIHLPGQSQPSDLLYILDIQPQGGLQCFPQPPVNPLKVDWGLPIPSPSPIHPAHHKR
T2 sequence (P08514 891-1039 partner limits assumed): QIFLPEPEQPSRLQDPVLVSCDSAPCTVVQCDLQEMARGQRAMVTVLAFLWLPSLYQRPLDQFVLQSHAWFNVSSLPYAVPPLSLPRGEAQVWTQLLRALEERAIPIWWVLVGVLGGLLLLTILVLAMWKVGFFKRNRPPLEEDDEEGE
T2 sequence (P05106 27-788): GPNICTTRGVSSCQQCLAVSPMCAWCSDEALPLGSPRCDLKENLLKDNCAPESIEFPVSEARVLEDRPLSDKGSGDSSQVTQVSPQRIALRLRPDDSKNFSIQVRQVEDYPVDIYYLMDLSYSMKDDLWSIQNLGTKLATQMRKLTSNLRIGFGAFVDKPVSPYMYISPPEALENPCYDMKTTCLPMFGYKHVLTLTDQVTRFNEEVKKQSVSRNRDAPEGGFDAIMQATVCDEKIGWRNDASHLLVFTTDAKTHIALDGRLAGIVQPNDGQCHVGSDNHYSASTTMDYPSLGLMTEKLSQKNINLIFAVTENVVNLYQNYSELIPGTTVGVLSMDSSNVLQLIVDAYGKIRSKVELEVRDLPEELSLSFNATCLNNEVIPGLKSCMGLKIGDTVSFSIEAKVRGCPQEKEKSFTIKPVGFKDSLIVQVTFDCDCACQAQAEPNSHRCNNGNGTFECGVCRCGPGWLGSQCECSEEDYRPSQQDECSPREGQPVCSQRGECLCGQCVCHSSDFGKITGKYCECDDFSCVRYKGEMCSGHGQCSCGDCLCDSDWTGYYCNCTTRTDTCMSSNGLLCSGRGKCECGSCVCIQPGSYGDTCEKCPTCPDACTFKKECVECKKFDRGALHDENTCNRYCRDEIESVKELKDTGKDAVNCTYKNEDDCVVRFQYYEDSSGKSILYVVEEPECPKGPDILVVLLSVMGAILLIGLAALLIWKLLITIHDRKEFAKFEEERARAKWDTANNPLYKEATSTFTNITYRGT
Outline: as §1

T1 sequence (P06756 31-889 limits assumed): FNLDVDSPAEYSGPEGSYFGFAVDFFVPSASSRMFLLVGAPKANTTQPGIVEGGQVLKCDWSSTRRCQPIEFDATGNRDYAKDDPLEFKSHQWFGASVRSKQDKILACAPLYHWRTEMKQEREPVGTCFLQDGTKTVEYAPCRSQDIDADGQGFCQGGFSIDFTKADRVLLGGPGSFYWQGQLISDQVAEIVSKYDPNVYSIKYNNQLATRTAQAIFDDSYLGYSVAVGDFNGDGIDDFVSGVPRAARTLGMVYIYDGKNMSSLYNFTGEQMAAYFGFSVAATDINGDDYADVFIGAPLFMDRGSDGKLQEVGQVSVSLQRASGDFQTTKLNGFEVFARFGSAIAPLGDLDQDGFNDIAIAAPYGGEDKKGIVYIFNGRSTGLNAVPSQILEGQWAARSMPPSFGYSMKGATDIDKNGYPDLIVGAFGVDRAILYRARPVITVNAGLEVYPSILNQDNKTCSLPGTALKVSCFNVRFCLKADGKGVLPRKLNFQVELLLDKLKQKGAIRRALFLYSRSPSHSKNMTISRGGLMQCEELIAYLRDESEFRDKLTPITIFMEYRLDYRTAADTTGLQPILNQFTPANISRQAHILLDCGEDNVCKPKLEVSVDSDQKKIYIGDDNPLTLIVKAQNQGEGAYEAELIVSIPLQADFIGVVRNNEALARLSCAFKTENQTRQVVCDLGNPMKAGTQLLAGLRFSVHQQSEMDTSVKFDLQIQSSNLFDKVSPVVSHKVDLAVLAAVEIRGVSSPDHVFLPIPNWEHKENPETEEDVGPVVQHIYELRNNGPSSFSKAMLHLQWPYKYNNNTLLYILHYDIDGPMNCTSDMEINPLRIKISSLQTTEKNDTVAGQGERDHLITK
T1 sequence (P06756 891-1048 partner limits assumed): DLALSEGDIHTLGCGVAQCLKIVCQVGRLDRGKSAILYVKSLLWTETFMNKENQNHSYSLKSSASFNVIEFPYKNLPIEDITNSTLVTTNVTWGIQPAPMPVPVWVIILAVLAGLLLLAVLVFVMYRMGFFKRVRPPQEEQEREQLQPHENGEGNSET
T1 sequence (P05106 27-788): as the sequence (P05106 27-788) above

## CC(=O)NC1C(OCc2ccccc2)OC(COCc2cccc(N)c2)C(O)C1OCC(=O)O (single isomer, unassigned) [Compound 95]
[1]
  INHIBITION 250 uM RECEPTOR aVb3 SUBSTRATE FIBRINOGEN: − (0% to 35% inhibition at 250 micromolar)
[2]
  INHIBITION @ 250 uM RECEPTOR allBb3 SUBSTRATE FIBRINOGEN: − (0% to 35% inhibition at 250 micromolar)
  INHIBITION 250 uM RECEPTOR allBb3 SUBSTRATE VITRONECTIN: ++ (61% to 80% inhibition at 250 micromolar)

## CC(=O)NC1C(OCc2ccccc2)OC(COCc2cccc(N)c2)C(O)C1OCC(=O)O (single isomer, unassigned) [Compound 96]
[1]
  INHIBITION 250 uM RECEPTOR aVb3 SUBSTRATE FIBRINOGEN: − (0% to 35% inhibition at 250 micromolar)
[2]
  INHIBITION @ 250 uM RECEPTOR allBb3 SUBSTRATE FIBRINOGEN: − (0% to 35% inhibition at 250 micromolar)
  INHIBITION 250 uM RECEPTOR allBb3 SUBSTRATE VITRONECTIN: + (36% to 60% inhibition at 250 micromolar)

## COCC1OC(OCc2ccccc2)C(NC(=O)CCNC(=N)N)C(OCc2ccc(C(=O)O)cc2)C1O (single isomer, unassigned) [Compound 97]
[1]
  INHIBITION 250 uM RECEPTOR aVb3 SUBSTRATE FIBRINOGEN: − (0% to 35% inhibition at 250 micromolar)
[2]
  INHIBITION @ 250 uM RECEPTOR allBb3 SUBSTRATE FIBRINOGEN: − (0% to 35% inhibition at 250 micromolar)
  INHIBITION 250 uM RECEPTOR allBb3 SUBSTRATE VITRONECTIN: − (0% to 35% inhibition at 250 micromolar)

## COCC1OC(OCc2ccccc2)C(NC(=O)CCNC(=N)N)C(OCc2ccc(C(=O)O)cc2)C1O (single isomer, unassigned) [Compound 98]
[1]
  INHIBITION 250 uM RECEPTOR aVb3 SUBSTRATE FIBRINOGEN: − (0% to 35% inhibition at 250 micromolar)
[2]
  INHIBITION @ 250 uM RECEPTOR allBb3 SUBSTRATE FIBRINOGEN: − (0% to 35% inhibition at 250 micromolar)
  INHIBITION 250 uM RECEPTOR allBb3 SUBSTRATE VITRONECTIN: +++ (81% to 100% inhibition at 250 micromolar)

## CCOCC1OC(OCc2ccccc2)C(NC(=O)c2cccc(N)c2)C(OCc2ccc(C(=O)O)cc2)C1O (single isomer, unassigned) [Compound 99]
[1]
  INHIBITION 250 uM RECEPTOR aVb3 SUBSTRATE FIBRINOGEN: − (0% to 35% inhibition at 250 micromolar)
[2]
  INHIBITION @ 250 uM RECEPTOR allBb3 SUBSTRATE FIBRINOGEN: − (0% to 35% inhibition at 250 micromolar)
  INHIBITION 250 uM RECEPTOR allBb3 SUBSTRATE VITRONECTIN: ++ (61% to 80% inhibition at 250 micromolar)

## CCOCC1OC(OCc2ccccc2)C(NC(=O)c2cccc(N)c2)C(OCc2ccc(C(=O)O)cc2)C1O (single isomer, unassigned) [Compound 100]
[1]
  INHIBITION 250 uM RECEPTOR aVb3 SUBSTRATE FIBRINOGEN: − (0% to 35% inhibition at 250 micromolar)
[2]
  INHIBITION @ 250 uM RECEPTOR allBb3 SUBSTRATE FIBRINOGEN: − (0% to 35% inhibition at 250 micromolar)
  INHIBITION 250 uM RECEPTOR allBb3 SUBSTRATE VITRONECTIN: +++ (81% to 100% inhibition at 250 micromolar)

## Nc1cccc(C(=O)NC2C(OCc3ccccc3)OC(CO)C(O)C2OCc2ccc(C(=O)O)cc2)c1 (single isomer, unassigned) [Compound 101]
[1]
  INHIBITION 250 uM RECEPTOR aVb3 SUBSTRATE FIBRINOGEN: + (36% to 60% inhibition at 250 micromolar)
[2]
  INHIBITION @ 250 uM RECEPTOR allBb3 SUBSTRATE FIBRINOGEN: − (0% to 35% inhibition at 250 micromolar)
  INHIBITION 250 uM RECEPTOR allBb3 SUBSTRATE VITRONECTIN: ++ (61% to 80% inhibition at 250 micromolar)

## Nc1cccc(C(=O)NC2C(OCc3ccccc3)OC(CO)C(O)C2OCc2ccc(C(=O)O)cc2)c1 (single isomer, unassigned) [Compound 102]
[1]
  INHIBITION 250 uM RECEPTOR aVb3 SUBSTRATE FIBRINOGEN: +++ (81% to 100% inhibition at 250 micromolar)
[2]
  INHIBITION @ 250 uM RECEPTOR allBb3 SUBSTRATE FIBRINOGEN: − (0% to 35% inhibition at 250 micromolar)
  INHIBITION 250 uM RECEPTOR allBb3 SUBSTRATE VITRONECTIN: +++ (81% to 100% inhibition at 250 micromolar)

## CCC(=O)NC1C(OCc2ccccc2)OC(COCc2cccc(N)c2)C(O)C1OCc1ccc(C(=O)O)cc1 (single isomer, unassigned) [Compound 103]
[1]
  INHIBITION 250 uM RECEPTOR aVb3 SUBSTRATE FIBRINOGEN: +++ (81% to 100% inhibition at 250 micromolar)
[2]
  INHIBITION @ 250 uM RECEPTOR allBb3 SUBSTRATE FIBRINOGEN: ++ (61% to 80% inhibition at 250 micromolar)
  INHIBITION 250 uM RECEPTOR allBb3 SUBSTRATE VITRONECTIN: +++ (81% to 100% inhibition at 250 micromolar)

## CCC(=O)NC1C(OCc2ccccc2)OC(COCc2cccc(N)c2)C(O)C1OCc1ccc(C(=O)O)cc1 (single isomer, unassigned) [Compound 104]
[1]
  INHIBITION 250 uM RECEPTOR aVb3 SUBSTRATE FIBRINOGEN: − (0% to 35% inhibition at 250 micromolar)
[2]
  INHIBITION @ 250 uM RECEPTOR allBb3 SUBSTRATE FIBRINOGEN: − (0% to 35% inhibition at 250 micromolar)
  INHIBITION 250 uM RECEPTOR allBb3 SUBSTRATE VITRONECTIN: +++ (81% to 100% inhibition at 250 micromolar)

## COCC1OC(OCc2ccccc2)C(NC(=O)c2ccc(C(=O)O)cc2)C(OCc2cccc(N)c2)C1O (single isomer, unassigned) [Compound 105]
[1]
  INHIBITION 250 uM RECEPTOR aVb3 SUBSTRATE FIBRINOGEN: − (0% to 35% inhibition at 250 micromolar)
[2]
  INHIBITION @ 250 uM RECEPTOR allBb3 SUBSTRATE FIBRINOGEN: +++ (81% to 100% inhibition at 250 micromolar)
  INHIBITION 250 uM RECEPTOR allBb3 SUBSTRATE VITRONECTIN: ++ (61% to 80% inhibition at 250 micromolar)

## COCC1OC(OCc2ccccc2)C(NC(=O)c2ccc(C(=O)O)cc2)C(OCc2cccc(N)c2)C1O (single isomer, unassigned) [Compound 106]
[1]
  INHIBITION 250 uM RECEPTOR aVb3 SUBSTRATE FIBRINOGEN: − (0% to 35% inhibition at 250 micromolar)
[2]
  INHIBITION @ 250 uM RECEPTOR allBb3 SUBSTRATE FIBRINOGEN: + (36% to 60% inhibition at 250 micromolar)
  INHIBITION 250 uM RECEPTOR allBb3 SUBSTRATE VITRONECTIN: +++ (81% to 100% inhibition at 250 micromolar)
